Measurements as given in patent US4414388A, “1-Oxo-1H-thiazolo[3,2-a]pyrimidine-2-carboxamides” (Pfizer Inc., priority 1981, dated 1983).

Legend:
IgG = test: passive cutaneous anaphylaxis (PCA) test, oral, IgG (hyperimmune antiserum) site; type: in vivo, rat; details: Table I, 1 mg./kg.
Protocol: (§1) The antiallergy property of the compounds of this invention is evaluated by the passive cutaneous anaphylaxis (PCA) test (Ovary, J. Immun., 81, 355, 1958). In the PCA test, normal animals are injected intradermally (i.d.) with antibodies contained in serum obtained from actively sensitized animals. The animals are then challenged intravenously with antigen mixed with a dye such as Evans' Blue. The increased capillary permeability caused by the antigen-antibody reaction causes the dye to leak from the site of the antibody injection. The test animals are then asphyxiated and the intensity of the reaction determined by measuring the diameter and intensity of the blue coloration on the inner surface of the animals' skin.
The PCA test is a measure of the anti-allergic (especially anti-asthmatic) activity of a compound. Compounds which inhibit a positive PCA test induced by the rat immunochemical counterpart of human immunoglobulin E (IgE), or reagin, are considered to have anti-allergic activity (C. Mota, Ann. N.Y. Acad. Sci., 103, 264 1963). (Reagin is primarily immunoglobulin E [IgE] and is the principal immunoglobulin responsible for allergic asthma, anaphylaxis, hay fever, food sensitivities and certain manifestations of drug sensitivities, although recent evidence ascribes to the IgG class of antibodies a significant role in the mediation of allergic diseases). Such compounds when administered to a sensitized subject, human or animal, prior to the time when the subject comes into contact with antigens or substances to which it is allergic, will prevent the allergic reaction which would otherwise occur. They, therefore, provide a method for the prophylactic treatment of allergy or anaphylactic reactions of a reagin mediated nature.
To put it another way, such compounds block the release of mediators resulting from the antigen-antibody (allergic) reaction as illustrated in the PCA test using rat homocytotropic antibody--a known correlate of human reaginic antibody. Inhibition of reaginic antigen-antibody reactions in rats, the test animal of the PCA test, is regarded as representative of inhibition of human reaginic antigen-antibody reactions which occur during allergic episodes.
The ability of agents to interfere with PCA reactions is measured in male Charles River Wistar rats, 170-210 g. Reaginic antiserum, rich in IgE antibodies, is prepared according to Petillo et al., Int. Arch. Allergy, 44, 309 (1973). Hyperimmune antiserum rich in IgG antibodies to hen egg albumin is prepared according to Orange et al., J. Exptl. Med., 127, 767 (1968). Forty-eight hours prior to antigen challenge, the reaginic antiserum is injected intradermally (i.d.) into the shaved skin of a normal rat's back; 5 hours before challenge the hyperimmune antisera is similarly injected. At a third site 60 mcg. histamine dihydrochloride and 0.5 mcg. serotonin creatinine sulfate are injected i.d. just prior to antigen challenge as a check for antihistaminic, antiserotonin and unspecific types of blockage; the compounds of the instant invention or saline are then administered i.v. and immediately followed by the challenge of 5 mg. egg albumen and 2.5 mg. Evans' Blue dye in saline. In the case of oral administration Evans' Blue dye and egg albumin are given 5 minutes after administration of the drug. Thirty minutes later the animals are asphyxiated using chloroform and the skin of the back removed and reversed for observation. A score is assigned each injection site equal to the product of the diameter of the site in mm. and a grade of 0.1, 0.5, 1, 2, 3 or 4 proportional to intensity of dye coloration. The scores for a given injection site are summed for each group of five animals and compared to the saline treated controls. The difference is expressed as percent blockage due to the compound employed. […]

[1] = system: phenylbutazone gastric ulcer; test: phenylbutazone gastric ulcer model; type: in vivo; details: po
Description: Miller et al., Gut 20, 75 (1979); Robert et al., Gastroenterology 72, 1121 (1977).] aptly characterizes the effects of compound III.

blood glucose = blood glucose levels in fasted rats; type: in vivo, rat; details: oral, 10, 30 or 100 mg/kg; fasted 24 hours
[2] = stability (solid state, in admixture and in solution); type: physicochemical; details: pure solid state, with standard pharmaceutical diluents
[3] = system: passive cutaneous anaphylaxis (PCA); test: PCA test, oral activity in general; type: in vivo, rat
Protocol: as §1
The ability of agents to interfere with PCA reactions is measured in male Charles River Wistar rats, 170-210 g. Reaginic antiserum, rich in IgE antibodies, is prepared according to Petillo et al., Int. Arch. Allergy, 44, 309 (1973). Hyperimmune antiserum rich in IgG antibodies to hen egg albumin is prepared according to Orange et al., J. Exptl. Med., 127, 767 (1968). Forty-eight hours prior to antigen challenge, the reaginic antiserum is injected intradermally (i.d.) into the shaved skin of a normal rat's back; 5 hours before challenge the hyperimmune antisera is similarly injected. […] The difference is expressed as percent blockage due to the compound employed.

SMILES: O=C(Nc1nnn[nH]1)c1cnc2sc3c(n2c1=O)CCCC3 [compound III, N-(5-tetrazolyl)-1-oxo-1H-cyclohexenothiazolo[3,2-a]pyrimidine-2-carboxamide]
- Oral Activity (% of Protection) of Amides in the PCA Test, IgG 1 mg./kg. (IgG): 45%
- ED50 [1]: 0.2 mg/kg
- changes in blood glucose levels (blood glucose): did not exhibit any changes in blood glucose levels
- stability [2]: exceptionally good stability
- stability ([2]; listed as formula III): highly stable
- oral activity, in words [3]: excellent oral activity
